Earlier results on two molecules are cited in patent US11766458B2, “Method and a dietary composition on regulation, treatment, and prevention of obesity” (priority 2021, dated 2023).

For data set [1], the system named is DIO C57BL/6 mice.
For data set [2] the following is noted: Nutrition & Diabetes volume 11, Article number: 3, 2021.

`N=C(N)NCCC[C@H](N)C(=O)O` [L-arginine]: the “Energy intake (food diary)” value (after L-arginine treatment) is “less energy intake”. Where the note is “healthy people, oral 17.1 mmol, after unlimited meals, p<0.001”, the “Release of plasma PYY” value is “stimulated”. In addition, the “Release of plasma GLP-1” value (healthy people, oral 17.1 mmol, after unlimited meals, p<0.05) was “stimulated”. In data set [1] (oral 1 g/kg 15 minutes before OGTT), the GLP-1 secretion entry is given as “induces GLP-1 secretion”. Besides, in data set [1] (oral 1 g/kg 15 minutes before OGTT (2 g glucose/kg bw)), the Glucose resistance entry is listed as “improves glucose resistance”.
Take `N[C@@H](Cc1c[nH]c2ccccc12)C(=O)O` [tryptophan]: the Gastric emptying result in data set [2] is “delays the gastric emptying”.
